Results on four compounds are retold here after publication PMC4237514, “Novel amino-β-lactam derivatives as potent cholesterol absorption inhibitors” (European Journal of Medicinal Chemistry, 2014).

The test addresses T1, human NPC1L1 (Homo sapiens, UniProt Q9UHC9).
T1 construct: expressed in transfected cells
T1 sequence (Q9UHC9 22-1359): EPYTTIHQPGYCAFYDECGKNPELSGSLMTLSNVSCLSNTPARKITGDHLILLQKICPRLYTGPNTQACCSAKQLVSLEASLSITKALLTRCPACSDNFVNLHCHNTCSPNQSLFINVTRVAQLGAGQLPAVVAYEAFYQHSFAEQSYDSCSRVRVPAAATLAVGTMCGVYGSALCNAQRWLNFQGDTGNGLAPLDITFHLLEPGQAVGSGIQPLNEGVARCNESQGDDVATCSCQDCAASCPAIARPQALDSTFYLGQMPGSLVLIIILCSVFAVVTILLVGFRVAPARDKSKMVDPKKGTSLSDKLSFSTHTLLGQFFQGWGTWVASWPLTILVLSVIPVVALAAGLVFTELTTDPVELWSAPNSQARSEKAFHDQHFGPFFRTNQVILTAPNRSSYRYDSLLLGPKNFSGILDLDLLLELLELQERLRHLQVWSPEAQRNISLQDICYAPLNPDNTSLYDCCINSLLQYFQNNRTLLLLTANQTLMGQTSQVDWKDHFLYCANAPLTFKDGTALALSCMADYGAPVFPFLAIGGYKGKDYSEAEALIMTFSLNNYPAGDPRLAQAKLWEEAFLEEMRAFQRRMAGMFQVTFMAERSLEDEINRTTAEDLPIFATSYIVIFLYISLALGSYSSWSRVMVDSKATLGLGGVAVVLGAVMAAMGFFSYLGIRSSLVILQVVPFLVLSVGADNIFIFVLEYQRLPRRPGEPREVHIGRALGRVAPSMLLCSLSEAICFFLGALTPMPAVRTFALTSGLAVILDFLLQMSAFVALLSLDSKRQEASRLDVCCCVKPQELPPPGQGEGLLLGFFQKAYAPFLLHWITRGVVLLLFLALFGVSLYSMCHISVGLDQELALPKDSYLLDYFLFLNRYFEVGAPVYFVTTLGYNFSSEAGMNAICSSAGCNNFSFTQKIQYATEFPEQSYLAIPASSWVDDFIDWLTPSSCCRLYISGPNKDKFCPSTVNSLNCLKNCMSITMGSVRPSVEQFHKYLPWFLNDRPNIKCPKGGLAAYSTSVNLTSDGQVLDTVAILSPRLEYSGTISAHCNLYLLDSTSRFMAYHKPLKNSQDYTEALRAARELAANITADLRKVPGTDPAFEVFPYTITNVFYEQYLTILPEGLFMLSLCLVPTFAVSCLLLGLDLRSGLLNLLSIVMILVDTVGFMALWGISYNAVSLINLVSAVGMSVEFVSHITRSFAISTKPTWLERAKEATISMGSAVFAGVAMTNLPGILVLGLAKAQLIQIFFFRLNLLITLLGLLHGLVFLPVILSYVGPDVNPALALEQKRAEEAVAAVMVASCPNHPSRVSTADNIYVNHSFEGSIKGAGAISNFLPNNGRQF
Nature of the test: In vitro [3H]cholesterol uptake assay in hNPC1L1/MDCKII cells. Type of test: cell-based. The conditions noted are these: for IC50: 1 h, read-out: IC50, cholesterol uptake inhibition; for inhibition at 120 µM: MDCK-II, maximum at 120 μM, compared to untreated cells. Here is the method:
Medium A contained DMEM plus 100 units/mL penicillin and 100 μg/mL streptomycin supplemented with 5% lipoprotein-deficient serum (density > 1.21 g/mL, prepared from FCS by ultracentrifugation). Cholesterol Replenishing Medium (Medium B) was prepared according to the modified method reported by Field et al.. In brief, 0.25 mM oleic acid, 50 μM free cholesterol, 10 μM compactin, 50 μM mevalonate, 5 mM Na-taurocholate (Sigma–Aldrich, Germany), and [^3H]cholesterol (0.18 μCi/mL medium, [1,2–3H(N)] cholesterol, 1 mCi/mL (ARC Inc., USA)) in Medium A were mixed and sonicated. Following the micellar formation, compounds 1, 5, 6, 5/6 (70:30), and 6/5 (85:15) (73 mM stock solution in DMSO) were added to Medium B and vortexed to obtain the final concentrations (10, 30, 60, 90, 120, 150, 200 μM).
MDCKII wildtype and hNPC1L1/MDCKII cells were seeded in 24-well plates at a density of 5 × 10^5 cells/mL medium (500 μL medium/well) in Medium A 24 h before the treatment. Cells were washed once with PBS and incubated in Medium B (500 μL medium/well) containing micelles and tested compounds in indicated concentrations for 1 h. Following the incubation, the medium was removed and cells were washed three times with ice-cold 0.2% free fatty acid-free BSA. Cells were lysed and radioactivity in the lysate (100 μL) was determined by liquid scintillation counting. Protein concentrations of the lysates were determined with the DC Protein Assay (Bio-Rad, USA). The results were calculated as cpm/mg protein and expressed as percentage of inhibition compared to untreated cells. Each concentration was tested in duplicate in three independent experiments.

SMILES strings stand for the structures.

The IC50 is the concentration that gives 50% inhibition. A word on the inhibition: it is the percentage by which the read-out fell short of the control. The low end stands for a response near the control, the high end for a response far below the control. Regarding `O=C1[C@H](NCC(O)c2ccc(F)cc2)[C@@H](c2ccc(O)cc2)N1c1ccc(F)cc1` (mixture of isomers) [5/6 (70:30), (3R,4R)-3-[(2R/S)-2-(4-fluorophenyl)-2-hydroxyethylamino]-1-(4-fluorophenyl)-4-(4-hydroxyphenyl)azetidin-2-one], the 50% inhibitory concentration (IC50) came to 60 µM and the inhibition at 120 µM fell in the range of 50 to 55%.

Take `O=C1[C@H](CC[C@H](O)c2ccc(F)cc2)[C@@H](c2ccc(O)cc2)N1c1ccc(F)cc1` [Compound 1, ezetimibe, reference compound]: the “effect on cholesterol uptake” value (Figure S3) is “inhibited cholesterol uptake”.

`O=C1[C@H](NC[C@H](O)c2ccc(F)cc2)[C@@H](c2ccc(O)cc2)N1c1ccc(F)cc1` [Compound 5]: the 50% inhibitory concentration (IC50) amounted to 72 µM and the inhibition at 120 µM lay in the range of 50 to 55%.

Regarding `O=C1[C@H](NC[C@@H](O)c2ccc(F)cc2)[C@@H](c2ccc(O)cc2)N1c1ccc(F)cc1` [Compound 6, (3R,4R)-3-[(2S)-2-(4-fluorophenyl)-2-hydroxyethylamino]-1-(4-fluorophenyl)-4-(4-hydroxyphenyl)azetidin-2-one], the IC50 was found to be 80 µM and the inhibition at 120 µM lay in the range of 50 to 55%.
